From publication doi:10.1101/2025.07.16.665058v1 (biorxiv, 2025) come the findings set out here.

The target in assay [1] is T1, rat ASIC3 (rASIC3) (Rattus norvegicus, UniProt O35240).
T1 sequence (O35240 1-533): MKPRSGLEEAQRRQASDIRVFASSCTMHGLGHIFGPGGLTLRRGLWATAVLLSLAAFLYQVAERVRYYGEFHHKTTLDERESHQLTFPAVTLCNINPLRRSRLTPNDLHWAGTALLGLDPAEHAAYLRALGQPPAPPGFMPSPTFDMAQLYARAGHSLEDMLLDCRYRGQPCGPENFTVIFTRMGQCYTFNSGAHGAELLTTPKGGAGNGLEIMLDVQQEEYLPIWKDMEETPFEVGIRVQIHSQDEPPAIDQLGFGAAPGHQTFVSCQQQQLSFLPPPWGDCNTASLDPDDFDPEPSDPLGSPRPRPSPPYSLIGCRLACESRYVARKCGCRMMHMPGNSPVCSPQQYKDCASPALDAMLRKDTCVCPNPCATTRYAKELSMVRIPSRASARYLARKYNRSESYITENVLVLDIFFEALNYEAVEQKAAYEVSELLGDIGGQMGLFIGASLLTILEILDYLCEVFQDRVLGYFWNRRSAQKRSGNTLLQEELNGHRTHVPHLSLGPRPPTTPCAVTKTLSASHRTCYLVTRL
As to the kind of experiment: whole-cell patch clamp, HEK293, potentiation of pH5.5-evoked sustained current. Type of assay: cell-based. Particulars: peptide applied in pH 7.4 resting solution, pH 5.5 pulse; positive modulator. For orientation: Patch clamp records ionic current or voltage across a cell membrane.

The target in assay [2] is T1, rat ASIC3 (rASIC3). As to the kind of experiment: whole-cell patch clamp, HEK293, pH5.5-evoked sustained current at […] s. Type of assay: cell-based. The conditions noted are these: peptide in pH 7.4 resting solution, pH 5.5 pulse, -50 mV.

Ends that are not written are not given here.

The EC50 is the concentration needed to bring the measured effect to its halfway point.

With “FRCCRF-NH2 (cysteine pairing not given here)”, the EC50 at rat ASIC3 (rASIC3) [1] amounted to 4.73 ± 0.8 µM.
Still for that read-out and setting: the result for “FRCRCF-NH2 (cysteine pairing not given here)” reads 4.41 ± 0.95 µM.
As to FRC̄C̄RFamide, the “Mean fold increase (I/Ictrl)” value at rat ASIC3 (rASIC3) [2] is on record as 24.22 fold.
FRC̄R̄C̄Famide: on rat ASIC3 (rASIC3) [2], the “Mean fold increase (I/Ictrl)” value was 34.08 fold.
